Assay results from patent US7981878B2, “Tumor treatment with gliotoxin derivatives” (priority 2005, dated 2011).

Experiments:
[1] = system: HeLa cells (cervix carcinoma); test: Cell count analysis HeLa; format: cell-based, human; settings: 0.2 μM gliotoxin, within 72 hours
Procedure: (§1) FIG. 8 a-d: Effects of gliotoxin on cell counts of various human tumour cell lines in vitro. Cell counts of a) hepatocellular carcinoma cell lines HepG2, Huh7, SNU398, Hep3b, HeLa (cervix) and the cholangiocarcinoma cell line NEC as well as b) the pancreatic cancer cell line Panc-1 and the melanoma cell lines d) MelJuso, Meljuso-Bcl-2 (+) and 607B after 72 h treatment with 200 nM gliotoxin; c-d) Cell count dose range experiments with c) pancreatic carcinoma cell lines Panc-1 and MiaPaCa as well as melanoma cell lines MelJuso, 518A2 and 607B using 25, 50 100 and 200 nM gliotoxin for 24 h. All data are given relative to control ±standard deviation.
(§2) Tumour cells were seeded at a density of 10,000 cells/well in 24-well plates. 24 h after seeding, medium containing gliotoxin was added to yield desired concentrations of gliotoxin. At time points indicated, culture medium was removed by suction. Adherent cells were washed with DPBS (Cambrex, Verviers, Belgium) and incubated with trypsin (Gibco) at 37° C. Detached cells were transferred to test tubes containing Cellpack isotonic fluid (Sysmex Europe, Bornbarch, Germany) and counted with a Coulter Z1 electronic cell counter (Beckman Coulter, Bedford, UK).

[2] = system: Notch2; test: Notch2 activity band shift assay in 518A2; format: cell-based, human; settings: 518A2, 200 nM gliotoxin, maximum at 24 h
Procedure: (§3) FIG. 10 a-b: Effects of gliotoxin on Notch2 regulation and apoptosis. The melanoma cell line 518A2 (A) and the pancreatic cancer cell line Panc-1 (B) were treated with 200 nM gliotoxin or vehicle control for 24 h Notch2 activity was analysed by band shift assay. Apoptosis was measured as annexin V and 7-AAD double positivity by FACS. Data are given as percentage of apoptotic cells ±standard deviation.
500,000 cells were seeded on 12 cm^2 plates for 24 h and then treated with 200 nM gliotoxin. At the time points as indicated cells were harvested and immediately frozen at −80° C. The band shift assay was performed as described for B-CLL.

[3] = system: SH1 (hairy cell carcinoma); test: Apoptosis FACS in leukaemia cell line SH1; format: cell-based; settings: SH1, 0.2 μM gliotoxin, 24 h
Procedure: (§4) FIG. 7: (A) The apoptotic activity of gliotoxin on further B-CLL patient samples (CLL4-CLL8) is illustrated. The (non-Notch2-associated) leukaemia cell lines (or the leukaemia cell lines not characterised by ligand-independent Notch2 fragments) Jurkat (T-ALL), SH1 (hairy cell carcinoma), RL-7 and K562 (CML) are resistant to a treatment with 0.2 μM (corresponding to 60 ng/ml) of gliotoxin. Cells were incubated for 24 h+/−gliotoxin, and the percentage of apoptotic cells (probidium-iodide+/annexinV+) was determined by means of FACS analysis. In none of the 4 non-Notch2-associated cell lines indicated, the application of 0.2 μM of gliotoxin led to a significant induction of apoptosis within 24 hours. The cytotoxic effect of Gliotoxin correlates with the Notch2 activity in leukemias. (B) Corresponding EMSA showing the activity of Notch2 in B-CLL cells and in leukemic cell lines (Jurkat, SH1, RL7, and K562).

[4] = system: cultures from animal cells; settings: cited from earlier work
[5] = system: Huh7 (hepatocellular carcinoma); test: Cell count analysis Huh7; format: cell-based, human; settings: Huh7, 200 nM gliotoxin, 72 h
Procedure: as §1, §2

[6] = system: Meljuso-Bcl-2 (+) (Bcl-2 over expressing melanoma cell line); test: Cell count analysis Meljuso-Bcl-2 (+); format: cell-based, human
Procedure: as §1, §2

[7] = system: RL-7; test: Apoptosis FACS in leukaemia cell line RL-7; format: cell-based; settings: RL-7, 0.2 μM gliotoxin, 24 h
Procedure: as §4

[8] = system: HepG2 (hepatocellular carcinoma); test: Cell count analysis HepG2; format: cell-based, human; settings: HepG2, 200 nM gliotoxin, 72 h
Procedure: as §1, §2

[9] = system: HCT-15; settings: cited from earlier work
[10] = target: T1, Notch2 (Homo sapiens, UniProt Q04721); test: Notch2 activity in PBMCs from healthy donors by EMSA; format: cell-based; settings: TPA-stimulated PBMCs, 0.2 μM gliotoxin, 4 hours
T1 construct: endogenous in cells; host or cells: PBMCs from healthy donors, with or without TPA
Procedure: FIG. 4: Gliotoxin induces apoptosis in unstimulated as well as in TPA-stimulated B-CLL cells within 4 hours. Normal PBMCs (peripheral blood mononuclear cells) from healthy donors show a markedly lower Notch2 activity. Although gliotoxin inhibits Notch2 also in normal, TPA-stimulated cells, the gliotoxin-caused apoptosis rate is markedly lower in normal cells as compared to B-CLL cells. Non-stimulated and TPA stimulated PBMC's from healthy donors (HD) are less sensitive to 0.2 μM Gliotoxin despite a basal Notch2 activity. PBMC's and CLL cells were incubated with 0.2 μM Gliotoxin with or without TPA for 4 hours and the Notch2 activity as well as the percentage of apoptotic cells were determined by EMSA and FACS analysis, respectively.
After 4 hours of gliotoxin treatment, massive signs of the starting apoptosis (AnnexinV+) could already be recognized in B-CLL cells. This effect was increased by TPA (a phorbol ester which stimulates the activation of lymphocytes).

[11] = system: Panc-1 (pancreatic cancer); test: Apoptosis flow cytometry (Annexin V / 7-AAD) Panc-1; format: cell-based, human; settings: Panc-1, 200 nM gliotoxin, 24 h
Procedure: as §3
Tumour cells were seeded at a density of 50,000 cells/well in 6 well plates. 24 h after seeding, medium containing gliotoxin was added to yield desired concentrations of gliotoxin. After further 24 h cells were harvested, counted and washed twice with PBS. Then, 100,000 cells were resuspended in 100 μl binding buffer and stained with Annexin V-PE and 7-AAD (both Becton Dickinson, N.J., USA) according to manufacturer's recommendations. After 20 minutes incubation time at room temperature in the dark, 400 μl binding buffer was added and immediately analyzed on a FACScalibur flow cytometer using CellQuest software (both Becton Dickinson, N.J., USA)

[12] = system: 518A2 (melanoma); test: Cell count analysis 518A2; format: cell-based, human
Procedure: as §1, §2

[13] = system: K562 (CML); test: Apoptosis FACS in leukaemia cell line K562; format: cell-based; settings: K562, 0.2 μM gliotoxin, 24 h
Procedure: as §4

T1 sequence (Q04721 1697-2471 limits assumed): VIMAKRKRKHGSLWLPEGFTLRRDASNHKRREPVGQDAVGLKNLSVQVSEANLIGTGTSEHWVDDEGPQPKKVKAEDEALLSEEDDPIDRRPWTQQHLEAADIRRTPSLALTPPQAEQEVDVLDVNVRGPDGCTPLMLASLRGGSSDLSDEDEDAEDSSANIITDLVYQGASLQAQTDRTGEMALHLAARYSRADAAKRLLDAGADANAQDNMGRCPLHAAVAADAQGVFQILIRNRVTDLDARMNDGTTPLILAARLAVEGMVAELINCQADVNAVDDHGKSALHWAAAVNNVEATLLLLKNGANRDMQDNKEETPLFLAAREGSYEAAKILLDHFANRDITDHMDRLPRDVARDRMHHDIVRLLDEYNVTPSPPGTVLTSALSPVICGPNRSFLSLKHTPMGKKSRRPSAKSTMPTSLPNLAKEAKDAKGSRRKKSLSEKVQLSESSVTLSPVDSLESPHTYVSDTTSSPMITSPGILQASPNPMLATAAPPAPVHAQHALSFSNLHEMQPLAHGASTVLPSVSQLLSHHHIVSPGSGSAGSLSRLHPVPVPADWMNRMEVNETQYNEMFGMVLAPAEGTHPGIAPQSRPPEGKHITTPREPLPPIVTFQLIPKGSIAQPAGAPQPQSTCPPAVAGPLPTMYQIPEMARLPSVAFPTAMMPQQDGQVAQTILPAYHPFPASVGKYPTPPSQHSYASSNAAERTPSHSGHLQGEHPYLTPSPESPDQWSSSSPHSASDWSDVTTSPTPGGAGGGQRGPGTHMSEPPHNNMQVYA

CN1C(=O)[C@]23CC4=CC=C[C@H](O)[C@H]4N2C(=O)[C@@]1(CO)SS3 [gliotoxin, [3R-(3α,5aβ,6β,10aα)]-2,3,5a,6-tetrahydro-6-hydroxy-3-(hydroxymethyl)-2-methyl-10H-3,10a-epi-dithiopyrazino[1,2-a]indol-1,4-dion]
effect on the cell count [1]: no significant effect | Notch-2 activity (band shift assay) [2]: time dependent down regulation | induction of apoptosis (probidium-iodide+/annexinV+) [3]: resistant | concentration at which the effect changes towards necrosis [4]: more than 10 μM | concentration for complete necrosis of the cell cultures [4]: ≥ 50 µM | mean reduction of cell numbers compared to vehicle treated controls [5]: 31% | response ([6]; MelJuso +BCL2, 0.2 μM (60 ng/ml)): ~100% | cell count decrease ([6]; Meljuso-Bcl-2 (+), 200 nM gliotoxin, 72 h): 94% | induction of apoptosis (probidium-iodide+/annexinV+) [7]: resistant | mean reduction of cell numbers compared to vehicle treated controls [8]: 67% | IC50 with regard to cell viability [9]: 0.039 µg/mL | physiologic Notch2 activity (EMSA) [10]: marked reduction | apoptotic cells (annexin V and 7-AAD double positive) [11]: 47% | effect on cell count ([12]; 518A2, 200 nM gliotoxin, 72 h): very effective | cytotoxicity in dose range experiment (cell count) ([12]; 518A2, 25, 50, 100 and 200 nM, 24 h): clear dose dependent cytotoxicity | induction of apoptosis (probidium-iodide+/annexinV+) [13]: resistant
